For the test, the system named is primary rat mixed cortical cells. As to the kind of experiment: In vitro myelination assay (MBP positive myelin strands, fold myelin pixels above background). The note with it: Rattus norvegicus, relative to baseline of no added compound, read-out: Fold myelin pixels above background; for fold induction at 1 µM: 1.0 μM compound; for fold induction at 10 µM: 10.0 μM compound. Type of test: cell-based. A digest of the protocol:
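P1 rat mixed cortical cultures (neurons, OPCs, oligodendrocytes, astrocytes, microglia) grown 14 days at 37 °C with compound, half-medium refreshed with compound on days 6 and 10. Fixed cells stained for MBP; MBP-positive myelin strand pixels per well quantified by automated imaging, reported as fold over no-compound baseline at 1.0 and 10.0 μM.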

In the case of `Cc1cc(Nc2ncn(-c3ccccc3C)n2)cc(N2CCN(C3COC3)CC2)c1` [Compound 414, N-[3-methyl-5-[4-(oxetan-3-yl)piperazin-1-yl]phenyl]-1-(o-tolyl)-1,2,4-triazol-3-amine], the fold induction at 1 µM lay within 1 to 10 and the fold induction at 10 µM was in the range of 100 to 1000.

On to `Cc1cc(Nc2ncn(-c3cc(F)cc(OC(C)C)c3)n2)cc(N2CCN(C3COC3)CC2)c1` [Compound 415, 1-(3-fluoro-5-isopropoxy-phenyl)-N-[3-methyl-5-[4-(oxetan-3-yl)piperazin-1-yl]phenyl]-1,2,4-triazol-3-amine], for which the fold induction at 1 µM was in the range of 100 to 1000 and the fold induction at 10 µM is no more than 1.

In the case of `Cc1cc(Nc2ncn(-c3cc(F)cc(F)c3)n2)cc(C2(O)CCN(C3COC3)C2)c1` (stereo not drawn) [Compound 416, 3-[3-[[1-(3,5-difluorophenyl)-1,2,4-triazol-3-yl]amino]-5-methyl-phenyl]-1-(oxetan-3-yl)pyrrolidin-3-ol], the fold induction at 1 µM lay within 100 to 1000 and the fold induction at 10 µM is 10 to 100.

In the case of `CCc1cc(Nc2ncn(-c3cc(F)ccc3F)n2)cc(N2CCN(C3COC3)CC2)c1` [Compound 417, 1-(2,5-difluorophenyl)-N-[3-ethyl-5-[4-(oxetan-3-yl)piperazin-1-yl]phenyl]-1,2,4-triazol-3-amine], the fold induction at 1 µM was in the range of 100 to 1000 and the fold induction at 10 µM fell in the range of 1000 to 10000.

Consider `Cc1cc(Nc2ncn(-c3ccnc(C)n3)n2)cc(N2CCN(C3COC3)CC2)c1` [Compound 418, N-[3-methyl-5-[4-(oxetan-3-yl)piperazin-1-yl]phenyl]-1-(2-methylpyrimidin-4-yl)-1,2,4-triazol-3-amine], for which the fold induction at 1 µM was no more than 1 and the fold induction at 10 µM is 10 to 100.

Take `Cc1cc(Nc2ncn(-c3ccccc3)n2)cc(N2CC(C)N(C)CC2C)c1` (stereo not drawn) [Compound 419, N-[3-methyl-5-(2,4,5-trimethylpiperazin-1-yl)phenyl]-1-phenyl-1,2,4-triazol-3-amine]: the fold induction at 1 µM fell in the range of 10 to 100 and the fold induction at 10 µM is no more than 1.

`Cc1cc(Nc2ncn(-c3cncc(C)n3)n2)cc(N2CCN(C3CC3)CC2)c1` [Compound 420, N-[3-(4-cyclopropylpiperazin-1-yl)-5-methyl-phenyl]-1-(6-methylpyrazin-2-yl)-1,2,4-triazol-3-amine]: the fold induction at 1 µM lay in the range of 1 to 10 and the fold induction at 10 µM was in the range of 1 to 10.

For `Cc1cc(Nc2ncn(-c3cc(F)cc(F)c3)n2)cc(N2CCN(CC(F)(F)F)CC2)c1` [Compound 421, 1-(3,5-difluorophenyl)-N-[3-methyl-5-[4-(2,2,2-trifluoroethyl)piperazin-1-yl]phenyl]-1,2,4-triazol-3-amine], the fold induction at 1 µM was in the range of 100 to 1000 and the fold induction at 10 µM lay in the range of 100 to 1000.

In the case of `COC(=O)N1CCN(c2cc(C)cc(Nc3ncn(-c4cc(F)cc(F)c4)n3)c2)CC1` [Compound 422, methyl 4-[3-[[1-(3,5-difluorophenyl)-1,2,4-triazol-3-yl]amino]-5-methyl-phenyl]piperazine-1-carboxylate], the fold induction at 1 µM was no more than 1 and the fold induction at 10 µM lay within 100 to 1000.

Consider `Cc1cc(Nc2ncn(-c3ccccc3)n2)cc(N2C[C@@H](C)N(C)[C@@H](C)C2)c1` [Compound 423, N-[3-methyl-5-[(3R,5S)-3,4,5-trimethylpiperazin-1-yl]phenyl]-1-phenyl-1,2,4-triazol-3-amine], for which the fold induction at 1 µM was 100 to 1000 and the fold induction at 10 µM was no more than 1.

For the compound `Cc1cc(Nc2ncn(-c3cc(C)cc(F)c3)n2)cc(N2CCN(C)CC2)c1` [Compound 424, 1-(3-fluoro-5-methyl-phenyl)-N-[3-methyl-5-(4-methylpiperazin-1-yl)phenyl]-1,2,4-triazol-3-amine], the fold induction at 1 µM fell in the range of 100 to 1000 and the fold induction at 10 µM was no more than 1.

Take `Cc1cc(N2CCN(C3COC3)CC2)cc(Nc2ncn(-c3cc(F)cc(F)c3)n2)c1C` [Compound 425, 1-(3,5-difluorophenyl)-N-[2,3-dimethyl-5-[4-(oxetan-3-yl)piperazin-1-yl]phenyl]-1,2,4-triazol-3-amine]: the fold induction at 1 µM lay in the range of 1 to 10 and the fold induction at 10 µM fell in the range of 100 to 1000.

On to `Fc1cc(F)cc(-n2cnc(Nc3cc(Cl)cc(N4CCOCC4)c3)n2)c1` [Compound 426, N-(3-chloro-5-morpholino-phenyl)-1-(3,5-difluorophenyl)-1,2,4-triazol-3-amine], for which the fold induction at 1 µM was 1000 to 10000 and the fold induction at 10 µM lay in the range of 1000 to 10000.

Consider `Cc1cc(Nc2ncn(-c3cncc(F)c3)n2)cc(N2CCOCC2)c1` [Compound 427, 1-(5-fluoro-3-pyridyl)-N-(3-methyl-5-morpholino-phenyl)-1,2,4-triazol-3-amine], for which the fold induction at 1 µM was in the range of 100 to 1000 and the fold induction at 10 µM fell in the range of 100 to 1000.

With `Cc1cc(Nc2ncn(-c3ccccc3Cl)n2)cc(N2CCN(C)CC2)c1` [Compound 428, 1-(2-chlorophenyl)-N-[3-methyl-5-(4-methylpiperazin-1-yl)phenyl]-1,2,4-triazol-3-amine], the fold induction at 1 µM lay in the range of 1 to 10 and the fold induction at 10 µM lay in the range of 10 to 100.

For the compound `Cc1cc(Nc2ncn(-c3cc(F)cc(F)c3)n2)cc(C2CCCNC2)c1` (stereo not drawn) [Compound 429, 1-(3,5-difluorophenyl)-N-[3-methyl-5-(3-piperidyl)phenyl]-1,2,4-triazol-3-amine], the fold induction at 1 µM fell in the range of 1000 to 10000 and the fold induction at 10 µM is no more than 1.

With `Cc1cc(Nc2ncn(-c3ccccc3)n2)cc(N2CCC(F)CC2)n1` [Compound 430, 2-(4-fluoro-1-piperidyl)-6-methyl-N-(1-phenyl-1,2,4-triazol-3-yl)pyridin-4-amine], the fold induction at 1 µM is 100 to 1000 and the fold induction at 10 µM is no more than 1.

With `Cc1cc(Nc2ncn(-c3ccccc3)n2)cc(N2CCN(CC3(C)COC3)CC2)c1` [Compound 431, N-[3-methyl-5-[4-[(3-methyloxetan-3-yl)methyl]piperazin-1-yl]phenyl]-1-phenyl-1,2,4-triazol-3-amine], the fold induction at 1 µM lay in the range of 1 to 10 and the fold induction at 10 µM is no more than 1.

Take `CCc1cc(Nc2ncn(-c3cccc(OC)c3)n2)cc(N2CCN(C3COC3)CC2)c1` [Compound 432, N-[3-ethyl-5-[4-(oxetan-3-yl)piperazin-1-yl]phenyl]-1-(3-methoxyphenyl)-1,2,4-triazol-3-amine]: the fold induction at 1 µM lay in the range of 100 to 1000 and the fold induction at 10 µM lay in the range of 1 to 10.

With `Cc1cc(Nc2ncn(-c3cc(F)cc(F)c3)n2)cc(OC2CCN(C3COC3)CC2)c1` [Compound 433, 1-(3,5-difluorophenyl)-N-[3-methyl-5-[[1-(oxetan-3-yl)-4-piperidyl]oxy]phenyl]-1,2,4-triazol-3-amine], the fold induction at 1 µM was 100 to 1000 and the fold induction at 10 µM lay in the range of 100 to 1000.

Regarding `Cc1cc(Nc2ncn(-c3ccccc3)n2)cc(N2CCN(C3CCOC3)CC2)c1` (stereo not drawn) [Compound 434, N-[3-methyl-5-(4-tetrahydrofuran-3-ylpiperazin-1-yl)phenyl]-1-phenyl-1,2,4-triazol-3-amine], the fold induction at 1 µM is 1000 to 10000 and the fold induction at 10 µM lay in the range of 1000 to 10000.

Turning to `Fc1cc(Nc2ncn(-c3cccc(F)c3)n2)cc(N2CCCC2)c1` [Compound 435, 1-(3-fluorophenyl)-N-(3-fluoro-5-pyrrolidin-1-yl-phenyl)-1,2,4-triazol-3-amine], the fold induction at 1 µM fell in the range of 100 to 1000 and the fold induction at 10 µM lay in the range of 100 to 1000.

As for `Cc1cc(Nc2ncn(-c3ccccc3)n2)cc(N2CCN(C3(C)COC3)CC2)c1` [Compound 436, N-[3-methyl-5-[4-(3-methyloxetan-3-yl)piperazin-1-yl]phenyl]-1-phenyl-1,2,4-triazol-3-amine], the fold induction at 1 µM was in the range of 1000 to 10000 and the fold induction at 10 µM fell in the range of 100 to 1000.

For `Cc1cc(Nc2ncn(-c3cc(F)ccc3F)n2)cc(N2CCN(C3COC3)CC2)c1` [Compound 437, 1-(2,5-difluorophenyl)-N-[3-methyl-5-[4-(oxetan-3-yl)piperazin-1-yl]phenyl]-1,2,4-triazol-3-amine], the fold induction at 1 µM lay in the range of 10 to 100 and the fold induction at 10 µM lay within 10 to 100.

`Cc1cc(Nc2ncn(-c3cc(F)cc(F)c3)n2)cc(C2CCNCC2O)c1` (stereo not drawn) [Compound 438, 4-[3-[[1-(3,5-difluorophenyl)-1,2,4-triazol-3-yl]amino]-5-methyl-phenyl]piperidin-3-ol]: the fold induction at 1 µM is 10 to 100 and the fold induction at 10 µM is no more than 1.

For the compound `CSc1cccc(-n2cnc(Nc3cc(C)cc(N4CCN(C5COC5)CC4)c3)n2)c1` [Compound 439, N-[3-methyl-5-[4-(oxetan-3-yl)piperazin-1-yl]phenyl]-1-(3-methylsulfanylphenyl)-1,2,4-triazol-3-amine], the fold induction at 1 µM is 1 to 10 and the fold induction at 10 µM lay in the range of 1 to 10.

In the case of `Fc1cc(Nc2ncn(-c3ccc(F)c(F)c3)n2)cc(N2CCOCC2)c1` [Compound 440, 1-(3,4-difluorophenyl)-N-(3-fluoro-5-morpholino-phenyl)-1,2,4-triazol-3-amine], the fold induction at 1 µM is 10 to 100 and the fold induction at 10 µM lay within 10 to 100.

With `Fc1cc(Nc2ncn(-c3ccc(C(F)(F)F)cc3)n2)cc(N2CCCC2)c1` [Compound 441, N-(3-fluoro-5-pyrrolidin-1-yl-phenyl)-1-[4-(trifluoromethyl)phenyl]-1,2,4-triazol-3-amine], the fold induction at 1 µM is 1 to 10 and the fold induction at 10 µM is no more than 1.

Regarding `Cc1cc(Nc2ncn(-c3cc(F)cc(F)c3)n2)cc(C2CCCN(C3CC(C(=O)O)C3)C2)c1` (stereo not drawn) [Compound 442, 3-[3-[3-[[1-(3,5-difluorophenyl)-1,2,4-triazol-3-yl]amino]-5-methyl-phenyl]-1-piperidyl]cyclobutanecarboxylic acid], the fold induction at 1 µM was in the range of 10 to 100 and the fold induction at 10 µM was 10 to 100.

In the case of `CC(=O)N1CCC(c2cc(C)cc(Nc3ncn(-c4ccccc4)n3)c2)C1` (stereo not drawn) [Compound 443, 1-[3-[3-methyl-5-[(1-phenyl-1,2,4-triazol-3-yl)amino]phenyl]pyrrolidin-1-yl]ethanone], the fold induction at 1 µM lay in the range of 1000 to 10000 and the fold induction at 10 µM was no more than 1.

The values are drawn from patent US10766869B2, “Triazoles for the treatment of demyelinating dieases” (Vertex Pharmaceuticals Incorporated, priority 2015, dated 2020).
